Reference: patent US20210267194A1, “SEED TREATMENT METHOD” (priority 2018, published 2021)
In brackets after ≈: the same amount, converted by molar mass. Like-named read-outs stand apart in the source and are kept apart here.

What was measured:
[1] = footnote a: Chemistry Dashboard of the US Environmental Protection Agency; cited from earlier work
[2] = Density of the active ingredient (Table 1); format: physicochemical
[3] = footnote a: Chemistry Dashboard of the US Environmental Protection Agency; cited from earlier work; remark: listed apart in the source
[4] = Solubility in water of the active ingredient (Table 1); conditions: for solubility: water
physchem = conditions: water

| Compound | Density [1] | Density [2] | further results |
| --- | --- | --- | --- |
| Fc1ccc([C@]2(Cn3cncn3)O[C@H]2c2ccccc2Cl)cc1 (racemic) [Epoxiconazole] | 1.42^a g/mL |  |  |
| Cc1c(F)c(F)c(COC(=O)[C@@H]2[C@H](/C=C(\Cl)C(F)(F)F)C2(C)C)c(F)c1F (racemic) [Tefluthrin] |  | 1.48 g/mL |  |
| CO/C=C(/C(=O)OC)c1ccccc1Oc1cc(Oc2ccccc2C#N)ncn1 [Azoxystrobin] | 1.34^a g/mL |  | Solubility in Water [3]: 6.01^a mg/L |
| CC1(C)C(C=C(Cl)Cl)C1C(=O)OC(C#N)c1ccc(F)c(Oc2ccccc2)c1 (stereo not drawn) [Beta-Cyfluthrin] |  | 1.35 g/mL | Solubility in Water [4]: 0.0012 µg/mL (≈ 0.00276 µM) |
| COC(=O)Nc1nc2ccccc2[nH]1 [Carbendazim] | 1.39^a g/mL | 1.45 g/mL | solubility (physchem): 8 µg/mL (≈ 41.8 µM) |
| CNC(=O)c1cc(Cl)cc(C)c1NC(=O)c1cc(Br)nn1-c1ncccc1Cl [Chlorantraniliprole] | 1.65^a g/mL |  |  |
| CN/C(=N\[N+](=O)[O-])NCc1cnc(Cl)s1 [Clothianidin] |  | 1.61 g/mL | solubility [4]: 340 µg/mL (≈ 1360 µM) |
| CNC(=O)c1cc(C#N)cc(C)c1NC(=O)c1cc(Br)nn1-c1ncccc1Cl [Cyantraniliprole] | 1.65^a g/mL |  |  |
| CC(C1CC1)C(O)(Cn1cncn1)c1ccc(Cl)cc1 (stereo not drawn) [Cyproconazole] | 1.31^a g/mL |  |  |
| CC[S+]([O-])c1c(C#N)nn(-c2c(Cl)cc(C(F)(F)F)cc2Cl)c1N (stereo not drawn) [Ethiprole] |  | 1.69 g/mL |  |
| CSC1=N[C@@](C)(c2ccccc2)C(=O)N1Nc1ccccc1 [Fenamidone] |  | 1.29 g/mL | solubility (physchem): 7.8 µg/mL (≈ 25 µM) |
| N#Cc1nn(-c2c(Cl)cc(C(F)(F)F)cc2Cl)c(N)c1[S+]([O-])C(F)(F)F (stereo not drawn) [Fipronil] |  | 1.71 g/mL | solubility (physchem): 3.78 µg/mL (≈ 8.65 µM) |
| O=[N+]([O-])c1cc(C(F)(F)F)c(Cl)c([N+](=O)[O-])c1Nc1ncc(C(F)(F)F)cc1Cl [Fluazinam] | 1.80^a g/mL |  | Solubility in Water [3]: 0.68^a mg/L |
| Cc1cc(C(F)(C(F)(F)F)C(F)(F)F)ccc1NC(=O)c1cccc(I)c1C(=O)NC(C)(C)CS(C)(=O)=O [Flubendiamide] | 1.78^a g/mL |  |  |
| N#Cc1c[nH]cc1-c1cccc2c1OC(F)(F)O2 [Fludioxinil] |  | 1.54 g/mL | Solubility in Water [4]: 1.8 µg/mL (≈ 7.25 µM) |
| O=C(NCCc1ncc(C(F)(F)F)cc1Cl)c1ccccc1C(F)(F)F [Fluopyram] |  | 1.53 g/mL | solubility [4]: 16 µg/mL (≈ 40.3 µM) |
| CO/N=C(/C1=NOCCO1)c1ccccc1Oc1ncnc(Oc2ccccc2Cl)c1F [Fluoxastrobin] |  | 1.42 g/mL | solubility [4]: 2.29 µg/mL (≈ 4.99 µM) |
| O=C1C=C(N(Cc2ccc(Cl)nc2)CC(F)F)CO1 [Flupyradifurone] |  | 1.43 g/mL | Solubility in Water [4]: 3200 µg/mL (≈ 11100 µM) |
| O=c1c2cc(F)ccc2nc(-n2cncn2)n1-c1ccc(Cl)cc1Cl [Fluquinconazole] |  | 1.58 g/mL |  |
| O=[N+]([O-])NC1=NCCN1Cc1ccc(Cl)nc1 [Imidacloprid] |  | 1.54 g/mL | Solubility in Water [4]: 610 µg/mL (≈ 2390 µM) |
| CC(C)C1CCC(Cc2ccc(Cl)cc2)C1(O)Cn1cncn1 (stereo not drawn) [Ipconazole] |  | 1.2 g/mL | solubility (physchem): 9.34 µg/mL (≈ 28 µM) |
| CC(C)NC(=O)N1CC(=O)N(c2cc(Cl)cc(Cl)c2)C1=O [Iprodione] |  | 1 g/mL | solubility (physchem): 6.8 µg/mL (≈ 20.6 µM) |

| Compound | Density [1] | Density [2] | further results |
| --- | --- | --- | --- |
| N#Cc1ccccc1NC(=O)c1snc(Cl)c1Cl [Isotianil] | 1.56^a g/mL |  | Solubility in Water [4]: 0.5 µg/mL (≈ 1.68 µM) |
| COCC(=O)N(c1c(C)cccc1C)[C@H](C)C(=O)OC [Metalaxyl-M] | 1.09^a g/mL |  |  |
| COCC(=O)N(c1c(C)cccc1C)C(C)C(=O)OC (stereo not drawn) [Metalaxyl] |  | 1.2 g/mL | solubility [4]: 8400 µg/mL (≈ 30100 µM) |
| CNC(=O)Oc1cc(C)c(SC)c(C)c1 [Methiocarb] |  | 1.25 g/mL | solubility [4]: 27 µg/mL (≈ 120 µM) |
| CNC(=O)/C(=N/OC)c1ccccc1Oc1ccccc1 [Metominostrobin] | 1.13^a g/mL |  |  |
| O=C(Nc1ccccc1)N(Cc1ccc(Cl)cc1)C1CCCC1 [Pencycuron] |  | 1.22 g/mL | Solubility in Water [4]: 0.3 µg/mL (≈ 0.912 µM) |
| Cc1nn(C)c(F)c1C(=O)Nc1ccccc1C(C)CC(C)C (stereo not drawn) [Penflufen] | 1.18^a g/mL |  | Solubility in Water [4]: 10.9 µg/mL (≈ 34.3 µM) |
| CO/C=C(/C(=O)OC)c1ccccc1COc1cccc(C(F)(F)F)n1 [Picoxystrobin] | 1.28^a g/mL |  | Solubility in Water [3]: 8.30^a mg/L |
| CC12CC1(C)C(=O)N(c1cc(Cl)cc(Cl)c1)C2=O (stereo not drawn) [Procymidone] | 1.43^a g/mL |  |  |
| CCCC1COC(Cn2cncn2)(c2ccc(Cl)cc2Cl)O1 (stereo not drawn) [Propiconazole] | 1.39^a g/mL |  |  |
| OC(Cc1ccccc1Cl)(Cn1nc[nH]c1=S)C1(Cl)CC1 (stereo not drawn) [Prothioconazole] |  | 1.36 g/mL | solubility [4]: 300 µg/mL (≈ 871 µM) |
| COC(=O)N(OC)c1ccccc1COc1ccn(-c2ccc(Cl)cc2)n1 [Pyraclostrobin] | 1.34^a g/mL |  | Solubility in Water [3]: 26.0^a mg/L |
| CC(c1ccc(C(F)(F)F)nc1)S(C)(=O)=NC#N (stereo not drawn) [Sulfoxaflor] | 1.34^a g/mL |  |  |
| CC(C)(C)C(O)(CCc1ccc(Cl)cc1)Cn1cncn1 (stereo not drawn) [Tebuconazole] |  | 1.25 g/mL |  |
| N#C/N=C1\SCCN1Cc1ccc(Cl)nc1 [Thiacloprid] |  | 1.46 g/mL | solubility [4]: 184 µg/mL (≈ 728 µM) |
| CN1COCN(Cc2cnc(Cl)s2)/C1=N\[N+](=O)[O-] [Thiamethoxam] | 1.76^a g/mL |  | Solubility in Water [3]: 1278^a mg/L |
| CS/C(C)=N\OC(=O)N(C)SN(C)C(=O)O/N=C(\C)SC [Thiodicarb] |  | 1.47 g/mL | solubility [4]: 22.2 µg/mL (≈ 62.6 µM) |
| CC(C)(C)C(O)C(Oc1ccc(Cl)cc1)n1cncn1 (stereo not drawn) [Triadimenol] |  | 1.27 g/mL | solubility (physchem): 72 µg/mL (≈ 243 µM) |
| CON=C(C(=O)OC)c1ccccc1CON=C(C)c1cccc(C(F)(F)F)c1 [Trifloxystrobin] |  | 1.36 g/mL | solubility (physchem): 0.61 µg/mL (≈ 1.49 µM) |
| Abamectin | 1.28^a g/mL |  | Solubility in Water [3]: 36.4^a mg/L |
| Spinetoram | 1.18^a g/mL |  | Solubility in Water [3]: 162^a mg/L |
| Spinosad | 1.20^a g/mL |  | Solubility in Water [3]: 295^a mg/L |
